The record followed here is ChEMBL document CHEMBL1145737 (Bioorg Med Chem Lett, 2003).

Usually IC50 stands for the concentration that inhibits the measured activity by half.

Values after ≈ are worked out from the molar mass of the structure shown.

The target in assay [1] is Neuraminidase (Influenza A virus (A/Puerto Rico/8/1934(H1N1)), UniProt P03468). Briefly: Inhibitory concentration against influenza A virus sialidase A/PR/8/34.
The next assay concerns MDCK. Briefly: Inhibitory concentration against Influenza A virus (A/Yamagata/32/89) MDCK cells determined by plaque reduction assay. The format is functional, cell-based. To be noted: Canis lupus familiaris. A general note: Plaque reduction counts the foci of infection that form in a cell layer.
For another assay, the system named is Mus musculus. Briefly: Median survival time was determined after oral administration (10 umol/kg) once daily for 5 days in mouse infected with influenza virus. The format is functional.

Sequence of Neuraminidase (Influenza A virus (A/Puerto Rico/8/1934(H1N1)), UniProt P03468) (P03468 whole entry): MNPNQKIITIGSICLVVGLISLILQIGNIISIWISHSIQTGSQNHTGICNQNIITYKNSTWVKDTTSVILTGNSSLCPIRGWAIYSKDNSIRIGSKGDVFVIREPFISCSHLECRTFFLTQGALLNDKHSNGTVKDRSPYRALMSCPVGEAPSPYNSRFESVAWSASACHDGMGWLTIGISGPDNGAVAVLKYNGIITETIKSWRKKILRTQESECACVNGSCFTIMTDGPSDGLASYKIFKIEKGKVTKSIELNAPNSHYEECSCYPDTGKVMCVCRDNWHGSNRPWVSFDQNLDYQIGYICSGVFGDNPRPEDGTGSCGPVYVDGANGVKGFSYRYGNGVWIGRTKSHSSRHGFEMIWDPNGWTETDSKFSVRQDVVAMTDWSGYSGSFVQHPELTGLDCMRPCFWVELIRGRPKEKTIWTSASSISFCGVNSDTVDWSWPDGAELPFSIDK

Turning to `CC(=O)N[C@H]1[C@H]([C@H]2C[C@H](O)[C@H](O)CO2)OC(C(=O)O)=C[C@@H]1NC(=N)N`, the IC50 in assay [1] was 6.84 nM; in the assay with MDCK, more than 100 ng/mL.

As for `CC(=O)N[C@H]1[C@H]([C@H](O)[C@H](O)CO)OC(C(=O)O)=C[C@@H]1NC(=N)N` [ZANAMIVIR], in the assay on MDCK, the IC50 turned out to be 6.6 ng/mL (≈ 19.9 nM).

Regarding `CC(=O)N[C@H]1[C@H]([C@@H]2OCC(F)(F)[C@@H](O)[C@H]2O)OC(C(=O)O)=C[C@@H]1NC(=N)N`, the IC50 in assay [1] is 27.1 nM; in the assay on MDCK, 1.4 ng/mL (≈ 3.55 nM).

`CC(=O)N[C@H]1[C@H]([C@H]2CCCCO2)OC(C(=O)O)=C[C@@H]1NC(=N)N`: the figures for the IC50 (in assay [1]; in the assay on MDCK) were 735 nM and more than 100 ng/mL, respectively.

Regarding `CC(=O)N[C@H]1[C@H]([C@@H]2OCC[C@@H](O)[C@H]2O)OC(C(=O)O)=C[C@@H]1NC(=N)N`, the values for the 50% inhibitory concentration (IC50) (in assay [1]; in the assay with MDCK) were 28.7 nM and 0.6 ng/mL (≈ 1.67 nM), respectively. Further, the Survival time with Mus musculus is 10 days.

As for `CC(=O)N[C@H]1[C@H]([C@H]2C[C@@H](O)[C@@H](O)CO2)OC(C(=O)O)=C[C@@H]1NC(=N)N`, the IC50 is 2780 nM in assay [1] and more than 100 ng/mL in the assay with MDCK.

With `CC(=O)N[C@H]1[C@H]([C@@H]2OC[C@@H](O)[C@H]2O)OC(C(=O)O)=C[C@@H]1NC(=N)N`, the IC50 was 17.7 nM in assay [1] and 1.4 ng/mL (≈ 4.07 nM) with MDCK.

As to `CC(=O)N[C@H]1[C@H]([C@@H]2C[C@H](O)[C@H](O)CO2)OC(C(=O)O)=C[C@@H]1NC(=N)N`, the half-inhibitory concentration (IC50) in assay [1] is 1030 nM; in the assay on MDCK it was more than 100 ng/mL.

Turning to `CC(=O)N[C@H]1[C@H]([C@@H]2OCCC[C@@H](O)[C@H]2O)OC(C(=O)O)=C[C@@H]1NC(=N)N`, the values for the IC50 (in assay [1]; in the assay with MDCK) were 33.3 nM and 2.2 ng/mL (≈ 5.91 nM), respectively.

Regarding `CC(=O)N[C@H]1[C@H]([C@@H]2C[C@@H](O)[C@@H](O)CO2)OC(C(=O)O)=C[C@@H]1NC(=N)N`, the IC50 in assay [1] is 10000 nM; with MDCK it was more than 100 ng/mL.
